Where a name gives a salt, the structure may show the parent alone.

The term IC50 denotes the midpoint of a concentration-inhibition curve.

In one test the test system is Hsp90. Kind of test: IC50 of compounds of the invention, Example B Method 2 (Tables 6-9). The test is classed as cell-based, human. The settings on record: Table 7; Her2 degradation / inhibition of Hsp90; Method 2: MV-4-11 cells, 72 hours, Cell Counting Kit-8; read-out: IC50. In general terms: Tetrazolium assays rely on reduction of a dye to a coloured formazan, in cell work by metabolically active cells.
On to `CC(C)c1cc(-c2nnc(Nc3ccccc3)n2-c2ccc3c(ccn3C)c2)c(O)cc1O` [Compound 1a, 4-Isopropyl-6-[4-(1-methyl-1H-indol-5-yl)-5-phenylamino-4H-[1,2,4]triazol-3-yl]-benzene-1,3-diol], for which the 50% inhibitory concentration (IC50) worked out at 1400 nM.
On the same count and under the same terms, as for `CNc1nnc(-c2cc(C(C)C)c(O)cc2O)n1-c1ccc2c(ccn2C)c1` [Compound 2a, 4-Isopropyl-6-[4-(1-methyl-1H-indol-5-yl)-5-methylamino-4H-[1,2,4]triazol-3-yl]-benzene-1,3-diol], the figure is 3500 nM.
On the same count and under the same terms, under `CC(C)c1cc(-c2nnc(NCc3ccccc3)n2-c2ccc3c(ccn3C)c2)c(O)cc1O` [Compound 3a, 4-Isopropyl-6-[4-(1-methyl-1H-indol-5-yl)-5-benzylamino-4H-[1,2,4]triazol-3-yl]-benzene-1,3-diol] stands 35000 nM.
Still for that read-out and setting: as for `CC(C)c1cc(-c2nnc(Nc3ccc4ncccc4c3)n2-c2ccc3c(ccn3C)c2)c(O)cc1O` [Compound 5a, 4-isopropyl-6-(4-(1-methyl-1H-indol-5-yl)-5-(quinolin-6-ylamino)-4H-1,2,4-triazol-3-yl)benzene-1,3-diol], the figure is 680 nM; as for `CC(C)c1cc(-c2nnc(Nc3cccc(N)c3)n2-c2ccc3c(ccn3C)c2)c(O)cc1O` [Compound 6a, 4-(5-(3-aminophenylamino)-4-(1-methyl-1H-indol-5-yl)-4H-1,2,4-triazol-3-yl)-6-isopropylbenzene-1,3-diol], 2900 nM; as for `CC(C)c1cc(-c2nnc(Nc3cccc(C(F)(F)F)c3)n2-c2ccc3c(ccn3C)c2)c(O)cc1O` [Compound 7a, 4-isopropyl-6-(4-(1-methyl-1H-indol-5-yl)-5-(3-(trifluoromethyl)phenylamino)-4H-1,2,4-triazol-3-yl)benzene-1,3-diol], more than 5000 nM.
Consider `COc1cccc(Nc2nnc(-c3cc(C(C)C)c(O)cc3O)n2-c2ccc3c(ccn3C)c2)c1` [Compound 8a, 4-isopropyl-6-(5-(3-methoxyphenylamino)-4-(1-methyl-1H-indol-5-yl)-4H-1,2,4-triazol-3-yl)benzene-1,3-diol], for which the half-inhibitory concentration (IC50) stood at 1800 nM.
The same measure, in the same setting: under `CC(C)c1cc(-c2nnc(NC(=O)c3ccccc3)n2-c2ccc3c(ccn3C)c2)c(O)cc1O` [Compound 9a, N-(5-(2,4-dihydroxy-5-isopropylphenyl)-4-(1-methyl-1H-indol-5-yl)-4H-1,2,4-triazol-3-yl)benzamide] stands 2600 nM; under `Cc1cc(C(=O)Nc2nnc(-c3cc(C(C)C)c(O)cc3O)n2-c2ccc3c(ccn3C)c2)no1` [Compound 10a, N-(5-(2,4-dihydroxy-5-isopropylphenyl)-4-(1-methyl-1H-indol-5-yl)-4H-1,2,4-triazol-3-yl)-5-methylisoxazole-3-carboxamide], 7860 nM; under `CC(=O)Nc1nnc(-c2cc(C(C)C)c(O)cc2O)n1-c1ccc2c(ccn2C)c1` [Compound 11a, N-(5-(2,4-dihydroxy-5-isopropylphenyl)-4-(1-methyl-1H-indol-5-yl)-4H-1,2,4-triazol-3-yl)acetamide], 382 nM.
On the same count and under the same terms, under `CCCC(=O)Nc1nnc(-c2cc(C(C)C)c(O)cc2O)n1-c1ccc2c(ccn2C)c1` [Compound 12a, N-(5-(2,4-dihydroxy-5-isopropylphenyl)-4-(1-methyl-1H-indol-5-yl)-4H-1,2,4-triazol-3-yl)butyramide] stands 1400 nM.

The test is the same for the next values; noted with them: Table 8; Her2 degradation / inhibition of Hsp90; Method 2: MV-4-11 cells, 72 hours, Cell Counting Kit-8.
Regarding `CCNC(=O)Sc1nnc(-c2ccc(OC(=O)N(C)C)cc2OC(=O)N(C)C)n1-c1cccc2ccccc12` [Compound 6b, 4-(5-(ethylcarbamoylthio)-4-(naphthalen-1-yl)-4H-1,2,4-triazol-3-yl)-1,3-phenylene bis(dimethyl carbamate)], the half-maximal inhibitory concentration (IC50) was more than 100000 nM.

Still in this test, the particulars now being: Table 8; Her2 degradation / inhibition of Hsp90; Method 2: MV-4-11 cells, 72 hours, Cell Counting Kit-8; read-out: IC50.
`CCc1cc(-c2nnc(S)n2-c2cccc3ccccc23)c(OC(=O)C(C)(C)C)cc1OC(=O)C(C)(C)C` [Compound 3b, 4-ethyl-6-(5-mercapto-4-(naphthalen-1-yl)-4H-1,2,4-triazol-3-yl)-1,3-phenylene bis(2,2-dimethylpropanoate)]: the IC50 was more than 2000 nM.
On the same count and under the same terms, as for `CCc1cc(-c2nnc(S)n2-c2cccc3ccccc23)c(OC(=O)c2ccccc2)cc1OC(=O)c1ccccc1` [Compound 4b, 4-ethyl-6-(5-mercapto-4-(naphthalen-1-yl)-4H-1,2,4-triazol-3-yl)-1,3-phenylene dibenzoate], the figure is more than 2000 nM; as for `COCCOc1ccc(-c2nnc(S)n2-c2cccc3ccccc23)c(O)c1` [Compound 5b, 2-(5-mercapto-4-(naphthalen-1-yl)-4H 1,2,4-triazol-3-yl)-5-(2-methoxyethoxy) phenol], 30000 nM; as for `CC(C)c1cc(-c2nnc(SSc3nnc(-c4cc(C(C)C)c(O)cc4O)n3-c3ccc(N(C)C)cc3)n2-c2ccc(N(C)C)cc2)c(O)cc1O` [Compound 7b, 6,6′-(5,6-disulfanediylbis(4-(4-(dimethylamino)phenyl)-4H-1,2,4-triazole-5,3-diyl))bis(4-isopropylbenzene-1,3-diol)], 58 nM.
The same measure, in the same setting: as for `CC(=O)n1ccc2cc(-n3c(O)nnc3-c3cc(C(C)C)c(O)cc3O)ccc21` [Compound 9b, 1-(5-(3-(2,4-dihydroxy-5-isopropylphenyl)-5-hydroxy-4H-1,2,4-triazol-4-yl)-1H-indol-1-yl)ethanone], the figure is 40 nM.
On the same count and under the same terms, as for `CC(C)c1cc(-c2nnc(O)n2-c2ccc3c(ccn3C(=O)CCNC(=O)OC(C)(C)C)c2)c(O)cc1O` [Compound 10b, tert-butyl 3-(5-(3-(2,4-dihydroxy-5-isopropylphenyl)-5-hydroxy-4H-1,2,4-triazol-4-yl)-1H-indol-1-yl)-3-oxopropylcarbamate], the figure is less than 110 nM; as for `COCCC(=O)n1ccc2cc(-n3c(O)nnc3-c3cc(C(C)C)c(O)cc3O)ccc21` [Compound 11b, 3-(2,4-dihydroxy-5-isopropylphenyl)-4-(1-(3-methoxypropanoyl)-1H-indol-5-yl)-1H-1,2,4-triazol-5(4H)-one], less than 100 nM; as for `CC(C)c1cc(-c2nn(COC(=O)C(N)C(C)C)c(=O)n2-c2ccc3c(ccn3C)c2)c(O)cc1O` (stereo not shown) [Compound 12b, (3-(2,4-dihydroxy-5-isopropylphenyl)-4-(1-methyl-1H-indol-5-yl)-5-oxo-4,5-dihydro-1H-1,2,4-triazol-1-yl)methyl 2-amino-3-methylbutanoate], 29 nM.

Still in this test, the particulars now being: Table 9; Her2 degradation / inhibition of Hsp90; Method 2: MV-4-11 cells, 72 hours, Cell Counting Kit-8; dihydrochloride; read-out: IC50 Range.
Take `CC(C)c1cc(-c2nnc(O)n2-c2ccc(N(C)C)nc2)c(O)cc1O` [Compound 7d, 4-(4-(6-(dimethylamino)pyridin-3-yl)-5-hydroxy-4H-1,2,4-triazol-3-yl)-6-isopropylbenzene-1,3-diol dihydrochloride]: the half-inhibitory concentration (IC50) came to 47 nM.
Same read-out and setting: under `CC(C)c1cc(-c2nnc(O)n2-c2ccc(N3CCN(C)CC3)nc2)c(O)cc1O` [Compound 9d, 4-(5-hydroxy-4-(6-(4-methylpiperazin-1-yl)pyridin-3-yl)-4H-1,2,4-triazol-3-yl)-6-isopropylbenzene-1,3-diol dihydrochloride] stands 220 nM.

The same test, now with this note: Table 9; Her2 degradation / inhibition of Hsp90; Method 2: MV-4-11 cells, 72 hours, Cell Counting Kit-8; read-out: IC50 Range.
Consider `COCCN(C)c1ccc(-n2c(O)nnc2-c2cc(C(C)C)c(O)cc2O)cn1` [Compound 1d, 4-(4-(6-(N-(2-methoxyethyl)-N-methylamino)pyridin-3-yl)-5-hydroxy-4H-1,2,4-triazol-3-yl)-6-isopropylbenzene-1,3-diol], for which the concentration for half-maximal inhibition (IC50) was 30 nM.
Still for that read-out and setting: under `COC(CN(C)c1ccc(-n2c(O)nnc2-c2cc(C(C)C)c(O)cc2O)cn1)OC` [Compound 2d, 4-(4-(6-(N-(2,2-dimethoxyethyl)-N-methylamino)pyridin-3-yl)-5-hydroxy-4H-1,2,4-triazol-3-yl)-6-isopropylbenzene-1,3-diol] stands 107 nM; under `CC(C)c1cc(-c2nnc(O)n2-c2ccc(N(C)CC(=O)O)nc2)c(O)cc1O` [Compound 4d, 2-(N-(5-(3-(2,4-dihydroxy-5-isopropylphenyl)-5-oxo-1H-1,2,4-triazol-4(5H)-yl)pyridin-2-yl)-N-methylamino)acetic acid], 330 nM; under `CC(C)c1cc(-c2nnc(O)n2-c2ccc(N(C)CCN(C)C)nc2)c(O)cc1O` [Compound 5d, 4-(4-(6-(N-(2-(dimethylamino)ethyl)-N-methylamino)pyridin-3-yl)-5-hydroxy-4H-1,2,4-triazol-3-yl)-6-isopropylbenzene-1,3-diol], 220 nM.
The same measure, in the same setting: under `CC(C)c1cc(-c2nnc(O)n2-c2ccc(N(C)C)nc2)c(O)cc1O` [Compound 6d, 4-(4-(6-(dimethylamino)pyridin-3-yl)-5-hydroxy-4H-1,2,4-triazol-3-yl)-6-isopropylbenzene-1,3-diol] stands 58 nM; under `CC(C)c1cc(-c2nnc(O)n2-c2ccc(N3CCN(C)CC3)nc2)c(O)cc1O` [Compound 8d, 4-(5-hydroxy-4-(6-(4-methylpiperazin-1-yl)pyridin-3-yl)-4H-1,2,4-triazol-3-yl)-6-isopropylbenzene-1,3-diol], 243 nM; under `CC(C)c1cc(-c2nnc(O)n2-c2cccc(S(=O)(=O)N(C)CCN(C)C)c2)c(O)cc1O` [Compound 10d, 3-(3-(2,4-dihydroxy-5-isopropylphenyl)-5-hydroxy-4H-1,2,4-triazol-4-yl)-N-(2-(dimethylamino)ethyl)-N-methylbenzenesulfonamide], more than 330 nM.
Consider `Cc1ccc(-n2c(O)nnc2-c2cc(C(C)C)c(O)cc2O)cc1S(=O)(=O)N(C)C` [Compound 11d, 5-(3-(2,4-dihydroxy-5-isopropylphenyl)-5-hydroxy-4H-1,2,4-triazol-4-yl)-N,N,2-trimethylbenzenesulfonamide], for which the IC50 came out at 93 nM.
On the same count and under the same terms, under `CC(C)c1cc(-c2nnc(O)n2-c2ccc(N(C)C)c(S(N)(=O)=O)c2)c(O)cc1O` [Compound 12d, 5-(3-(2,4-dihydroxy-5-isopropylphenyl)-5-hydroxy-4H-1,2,4-triazol-4-yl)-2-(dimethylamino)benzene sulfonamide] stands 336 nM.
